# Measurements taken from patent US8957033B2, “Inhibitor of sodium-dependent glucose transport protein and preparation method therefor and use thereof” (Beijing Prelude Pharm. SCI. & Tech. Co., Ltd., priority 2011, dated 2015).
# Where two headings read alike, the source gives them in different places.
# Key:
# [1] = Pharmacokinetic test in vivo in SD rats; design: species or system male SD rats; conditions: 10 mg/kg
# Experimental: Compound 1, compound 2 and compound 3 were respectively dissolved in blank solution (5% 1-methyl-2-pyrrolidinone, 20% PEG-400 and 20 mM sodium diphosphate) in a concentration of 10 g/L.
# Experimental animals are male SD rats of 6-8 weeks old, with weight of 190-215 g, which were purchased from Beijing Vital River Laboratory Animal Technology Co., Ltd. The SD rats were randomly divided into seven groups based on body weight, each group containing three rats. Wherein group 1 is the blank control group in which the blank solution was administrated intravenously.
# Before the pharmacokinetic test, the SD rats were fasted for 16 hours, and then administrated intravenously (1 mL/kg; 10 mg/kg) or orally (1 mL/kg; 10 mg/kg) with single dose of the compound or blank solution according to Table 4. After administration 200 uL blood samples were collected regularly through jugular vein puncture, wherein for the group of animals administered intravenously, blood samples were collected at 0 minute, 15 minutes, 30 minutes, 1 hour, 2 hours, 4 hours, 8 hours and 24 hours after administration; for the group of animals administered orally, blood samples were collected at 0 minute, 15 minutes, 30 minutes, 45 minutes, 75 minutes, 135 minutes, 4 hours, 8 hours and 24 hours after administration. The blood samples were collected in a sample tube with EDTA, and immediately centrifuged under 4000 rpm for 0.5 minutes at 4° C., and then the plasma was transferred to another sample tube and stored at −20° C.
# The method and instruments for pharmacokinetics test of samples were as follows: • HPLC: Shimadzu (DGV-20A3, Serial NO: SSI-3-0536; LC-20AD Serial NO: • L20104551674 USB and L20104551673 USB), CTC Analytics HTC PAL System (Serial NO: 4353); • MS: AB API4000 Q Trap LC/MS/MS instrument (Serial NO. AR19020706) • Column: Phenomenex Luna 5μ C18 (2.0×50 mm) • Mobile phase: 100% acetonitrile (2 mM ammonium acetate) and 100% water (2 mM ammonium acetate) • Quantitative Method: internal standard method
# male SD rats [2] = test: Oral glucose tolerance test, glucose 15 minutes after administration (Example 5); assay type: in vivo; conditions: 10 mg/kg orally, Mean ± SD
# Experimental: Compound 1, compound 2 and compound 3 were respectively dissolved in blank solutions (5% 1-methyl-2-pyrrolidinone, 20% PEG-400 and 20 mM sodium diphosphate) in the concentration of 10 g/L.
# Experimental animals are male SD rats of 6-8 weeks old, with weight of 190-215 g, which were purchased from Beijing Vital River Laboratory Animal Technology Co., Ltd. The SD rats were randomly divided into four groups based on body weight, each group containing three rats. Wherein group 1 is the blank control group in which the rats were administrated with the above blank solution.
# Before the test, the rats were fasted for 16 hours and then administrated orally with the blank solution or compounds. The blood glucose baseline level was measured at 15 minutes after administration, then the rats in each group were administrated orally with 50% glucose aqueous solution in an amount of 2 g/kg. The blood samples (1 drop) were taken from tail veins of rats in each group at 15 minutes, 30 minutes, 1 hour and 2 hours after oral administration of glucose, and the blood glucose level was measured by using Accu-Chek Aviva system.
# (§1) Statistical analysis was conducted and the significance level was set to be P<0.05. The mean and standard deviation were calculated for all measurement parameters which were designed for study. One-way analysis of variance (ANOVA) was performed by software GraphPad Prism 5.0 after multiple comparisons among groups.
# [3] = 2 μM
# Experimental: (§4) 1) Master solution was prepared according to Table 1, and then the test compounds and control compound were added into the master solution, with the final concentration of these compounds in the reaction system being 2 μM. Then the mixed solution was preheated at 37° C. for 2 minutes.
# (§5) 2) NADPH was added into the mixed solution with the final concentration of NADPH being 1 mM, and then the reaction system was incubated at 37° C. The blank control was also added with the same volume of ultrapure water instead of NADPH.
# (§6) 3) 50 μL aliquots were taken out from the reaction system at 0, 15, 30, 45 and 60 minutes, and added with 3 volumes of cold methanol to terminate the reaction. The aliquot was centrifugated for 10 minutes under 16000 g to precipitate proteins. 100 μL of supernatant was used for LC/MS/MS analysis, to determine the amounts of the remaining test compounds and the control compound. The aliquots were detected in duplicate.
# (§7) The instruments and conditions for LC analysis were as follows:
# (§8) Shimadzu (Degasser DGU—20A3, Solvent Delivery Unit LC—20ADXR, System Controller CBM—20A, Column Oven CTO—10ASVP), CTC Analytics HTC PAL—XT System
# (§9) Column: Phenomenex 5μ C 18 (2) (2.0×50 mm)
# (§10) The instrument and conditions for MS/MS analysis were as follows: • AB API4000 LC/MS/MS instrument • Source: Turbo spray • Ionization mode: ESI • Type of scan: MRM • Collision gas: 6 L/min; curtain gas: 30 L/min; atomized gas: 50 L/min; auxiliary gas: 50 L/min; temperature: 500° C.; spray voltage: 4500 v.
# male SD rats [4] = test: Oral glucose tolerance test, glucose 8 hours after administration (Example 6), blood glucose; assay type: in vivo; conditions: 10 mg/kg orally, Mean ± SD
# Experimental: (§2) Preparation of the administrated drugs, and grouping and administration of the animals were the same as those in Example 5.
# (§3) Before the test, the rats were fasted for 16 hours and then administrated orally with the blank solution or compounds. The blood glucose baseline level was measured at 8 hours after administration, then the rats in each group were administrated orally with 50% glucose aqueous solution in an amount of 2 g/kg. The blood samples (1 drop) were taken from tail veins of rats in each group at 15 minutes, 30 minutes, 1 hour and 2 hours after oral administration of glucose, and the blood glucose level was measured by using Accu-Chek Aviva system.
# as §1
# [5] = male, 2 μM
# Experimental: as §4, §5, §6, §7, §8, §9, §10
# male SD rats [6] = test: Urine glucose at end of glucose tolerance test (Example 6); assay type: in vivo; conditions: 10 mg/kg orally; urine collected at end of glucose tolerance test; Mean ± SD
# Experimental: as §2, §3
# At the end of the test, urine of the rats in each group was collected, and then the urine glucose level was analyzed by using TOSHIBA TBA-40FR automatic biochemical analyzer.
# as §1
# [7] = male, rat, plasma, iv, administrated intravenously
# [8] = male, rat, plasma, po, administrated orally
smiles,measurement,setting,value
"CCOc1ccc(Cc2cc([C@@H]3O[C@H](CO)[C@@H](O)[C@H](O)[C@H]3O)ccc2Cl)cc1 [Compound 1, Dapagliflozin, reference compound]",CI_obs,[1]; administrated intravenously,2.99 mL/min/kg
same,Vss_obs,[1]; administrated intravenously,0.903 L/kg
same,AUC(0-inf),[1]; [7],56500 ng·h/mL
same,AUC(0-t),[1]; [7],55800 ng·h/mL
same,C0,[1]; [7],11000 ng/mL
same,MRT,[1]; [7],4.76 h
same,half-life,[1]; [7],3.95 h
same,AUC(0-inf),[1]; [8],39100 ng·h/mL
same,AUC(0-t),[1]; [8],41400 ng·h/mL
same,C0,[1]; [8],3880 ng/mL
same,Tmax,[1]; [8],1.25 h
same,half-life,[1]; [8],4.14 h
same,bioavailability,"[1]; male, rat, plasma, po, administrated orally, read-out: F (oral bioavailability)",69.1%
same,Blood glucose,"male SD rats [2]; glucose 2 g/kg 15 minutes after administration, 15 minutes after glucose",97.2 ± 17.36 mg/dL
same,Blood glucose,"male SD rats [2]; glucose 2 g/kg 15 minutes after administration, 30 minutes after glucose",102.6 ± 20.44 mg/dL
same,Blood glucose,"male SD rats [2]; glucose 2 g/kg 15 minutes after administration, 1 hour after glucose",94.8 ± 17.11 mg/dL
same,Blood glucose,"male SD rats [2]; glucose 2 g/kg 15 minutes after administration, 2 hours after glucose",72.0 ± 10.95 mg/dL
same,ΔAUC,male SD rats [2]; glucose 2 g/kg 15 minutes after administration,20.2 ± 19.32 mg·h/dL
same,Blood glucose,"male SD rats [2]; time 0 (baseline 15 minutes after administration, before glucose 2 g/kg)",85.2 ± 4.53 mg/dL
same,Residual percentage of compounds in human liver microsome,[3]; 0 min,100.00%
same,Residual percentage of compounds in human liver microsome,[3]; 15 min,100.36%
same,Residual percentage of compounds in human liver microsome,[3]; 30 min,102.10%
same,Residual percentage of compounds in human liver microsome,[3]; 45 min,101.77%
same,Blood glucose,"male SD rats [4]; glucose 2 g/kg 8 hours after administration, 15 minutes after glucose",96.60 ± 21.70 mg/dL
same,Blood glucose,"male SD rats [4]; glucose 2 g/kg 8 hours after administration, 30 minutes after glucose",131.40 ± 8.25 mg/dL
same,Blood glucose,"male SD rats [4]; glucose 2 g/kg 8 hours after administration, 1 hour after glucose",123.60 ± 4.53 mg/dL
same,Blood glucose,"male SD rats [4]; glucose 2 g/kg 8 hours after administration, 2 hours after glucose",72.60 ± 6.81 mg/dL
same,ΔAUC,male SD rats [4]; glucose 2 g/kg 8 hours after administration,107.90 ± 8.53 mg·h/dL
same,Blood glucose,"male SD rats [4]; time 0 (baseline 8 hours after administration, before glucose 2 g/kg)",50.40 ± 9.52 mg/dL
same,Residual percentage of compounds in rat liver microsome,[5]; 0 min,100.00%
same,Residual percentage of compounds in rat liver microsome,[5]; 15 min,88.37%
same,Residual percentage of compounds in rat liver microsome,[5]; 30 min,90.68%
same,Residual percentage of compounds in rat liver microsome,[5]; 45 min,83.66%
same,Urine glucose,male SD rats [6],294.90 ± 12.29 mmol/L
